From patent US20100022483A1, “Substituted Tetracycline Compounds” (Paratek Pharmaceuticals, Inc., priority 2008, published 2010)
Values after ≈ are worked out from the molar mass of the structure shown. Like-named read-outs stand apart in the source and are kept apart here.

How the values were obtained:
3T3 fibroblast cells = assay: In vitro phototoxicity assay (neutral red; UV light-treated vs dark control plates); format: cell-based; conditions: for Photo Toxicity UV Tox50: UV light 50 minutes; for Photo Toxicity Dark Tox50: dark control plate
Method: 3T3 fibroblast cells were harvested and plated at a concentration of 1×10^5 cells/mL and the plates were incubated overnight at 37° C., in 5% CO2 and approximately 95% humidity. On the following day the medium was removed from the plates and replaced with Hanks' Balanced Salt Solution (HBSS). Compound dilutions were made in HBSS and added to the plates. For each compound tested, a duplicate plate was prepared that was not exposed to light as a control for compound toxicity. Plates were then incubated in a dark drawer (for controls), or under UV light (meter reading of 1.6-1.8 mW/cm^2) for 50 minutes. Cells were then washed with HBSS, fresh medium was added, and plates were incubated overnight as described above. The following day neutral red was added as an indicator of cell viability. The plates were then incubated for an additional 3 hours. Cells were then washed with HBSS and blotted on absorbent paper to remove excess liquid. A solution of 50% EtOH, 10% glacial acetic acid was added and after 20 minutes incubation the plate's absorbance at 535 nm was read using a Wallac Victor 5 spectrophotometer. The phototoxicity reflected the difference between the light-treated and control cultures. Table 3 includes phototoxicity (μM) data for several substituted tetracycline compounds.

in vitro = format: cell-based; conditions: Chinese hamster, Cytotox. CHO-K1
Method: (§1) COS-1 and CHO-K1 cell suspensions were prepared, seeded into 96-well tissue culture treated black-walled microtiter plates (density determined by cell line), and incubated overnight at 37° C., in 5% CO2 and approximately 95% humidity. The following day, serial dilutions of compound were prepared under sterile conditions and transferred to cell plates. Cell/Compound plates were incubated under the above conditions for 24 hours. Following the incubation period, media/compound was aspirated and 50 μl of resazurin (0.042 mg/ml in PBS w/Ca and Mg) is added. The plates were then incubated under the above conditions for 2 hours and then placed in the dark at room temperature for an additional 30 minutes. Fluorescence measurements were taken (excitation 535 nm, emission 590 nm). The IC50 (concentration of compound causing 50% growth inhibition) was then calculated. Table 3 includes IC50 data for several substituted tetracycline compounds.

gram positive bacteria = assay: In vitro anti-bacterial activity assay (broth dilution MIC), gram positive bacteria; format: cell-based, S. aureus; conditions: 18 h
Text: (§2) Bacterial infections may be caused by a wide variety of gram positive and gram negative bacteria. Some of the compounds of the invention are useful as antibiotics against organisms which are resistant and/or sensitive to other tetracycline compounds. The antibiotic activity of the tetracycline compounds of the invention may by using the in vitro standard broth dilution method described in Waitz, J. A., CLSI, Document M7-A2, vol. 10, no. 8, pp. 13-20, 2nd edition, Villanova, Pa. (1990).
(§3) The following assay was used to determine the efficacy of the tetracycline compounds against gram positive and gram negative bacteria. 2 mg of each compound was dissolved in 100 μl of DMSO. […] The tetracycline compound solutions were diluted to 50 μL volumes, with a test compound concentration of 0.098 μg/ml. Optical density (OD) determinations were made from fresh log-phase broth cultures of the test strains. Dilutions were made to achieve a final cell density of […] CFU/ml. At OD=1, cell densities for different genera were approximately:
(§4) 50 μl of the cell suspensions were added to each well of microtiter plates. The final cell density was approximately 5×10^5 CFU/ml. These plates were incubated at 35° C. in an ambient air incubator for approximately 18 hours. The plates were read with a microplate reader and were visually inspected when necessary. The MIC was defined as the lowest concentration of the tetracycline compound that inhibits growth. Table 3 includes MIC data for several substituted tetracycline compounds.

gram negative bacteria = assay: In vitro anti-bacterial activity assay (broth dilution MIC), gram negative bacteria; format: cell-based, E. coli
Text: as §2, §3, §4

[1] = Mammalian cytotoxicity assay (resazurin), COS-1 cells; format: cell-based; conditions: African green monkey, read-out: Cytotox. COS-1
Method: as §1

[2] = Staphylococcus aureus, S. aureus MRSA5, read-out: Median MIC's G+ S. aureus MRSA5
[3] = Staphylococcus aureus, S. aureus RN450, read-out: Median MIC's G+ S. aureus RN450
[4] = Streptococcus pneumoniae, S. pneumoniae 157E-Strep, read-out: Median MIC's G+ S. pneumoniae 157E-Strep
[5] = Escherichia coli, 18 h, E. coli D1 209, read-out: Median MIC's G− E. coli D1 209
[6] = Escherichia coli, 18 h, E. coli MG 1655, read-out: Median MIC's G− E. coli MG 1655
[7] = Escherichia coli, ATCC25922, 18 h, E. coli ATCC 25922, read-out: Median MIC's G− E. coli ATCC 25922
[8] = Pseudomonas aeruginosa, 18 h, P. aeruginosa K201 PAO6609, read-out: Median MIC's G− P. aeruginosa K201 PAO6609

Compound | Photo Toxicity UV Tox50 (3T3 fibroblast cells) [µM] | Photo Toxicity Dark Tox50 (3T3 fibroblast cells) [µM] | IC50 at 24 h (in vitro) [µM] | MIC (gram positive bacteria; [2]) [µg/mL] | MIC (gram positive bacteria; [3]) [µg/mL] | MIC (gram positive bacteria; [4]) [µg/mL] | MIC (gram negative bacteria; [5]) [µg/mL] | MIC (gram negative bacteria; [6]) [µg/mL] | MIC (gram negative bacteria; [7]) [µg/mL] | MIC (gram negative bacteria; [8]) [µg/mL] | IC50 at 24 h [1] [µM]
CC1CCN(CC(=O)c2ccc(O)c3c2C[C@H]2C[C@H]4[C@H](N(C)C)C(O)=C(C(N)=O)C(=O)[C@@]4(O)C(O)=C2C3=O)CC1 [BH, 7-[2-(4-methyl-piperidin-1-yl)acetyl]-Sancycline] | >135.66 | >135.66 | > 136 | 0.06 (≈ 0.108 µM) | 0.06 (≈ 0.108 µM) | 0.06 (≈ 0.108 µM) | 0.25 (≈ 0.452 µM) | 0.06 (≈ 0.108 µM) | 0.06 (≈ 0.108 µM) | 32 (≈ 57.8 µM) | > 136
CN(C)[C@@H]1C(O)=C(C(N)=O)C(=O)[C@@]2(O)C(O)=C3C(=O)c4c(O)ccc(-c5ccc(CNCc6cccnc6)o5)c4C[C@H]3C[C@@H]12 [BI] | >126.75 | >126.75 | > 26 | 8 (≈ 13.3 µM) | 0.06 (≈ 0.0999 µM) | 0.06 (≈ 0.0999 µM) | 2 (≈ 3.33 µM) | 4 (≈ 6.66 µM) | 1 (≈ 1.66 µM) | 64 (≈ 107 µM) | > 39.3
CN(Cc1cccnc1)Cc1cccc(-c2ccc(O)c3c2C[C@H]2C[C@H]4[C@H](N(C)C)C(O)=C(C(N)=O)C(=O)[C@@]4(O)C(O)=C2C3=O)c1 [BJ] | >122.6 | >122.6 | > 25.1 | 2 (≈ 3.2 µM) | 0.25 (≈ 0.4 µM) | 0.06 (≈ 0.096 µM) | 32 (≈ 51.2 µM) | 64 (≈ 102 µM) | 16 (≈ 25.6 µM) | 64 (≈ 102 µM) | > 12.3
CN(C)Cc1ccc(-c2ccc(O)c3c2C[C@H]2C[C@H]4[C@H](N(C)C)C(O)=C(C(N)=O)C(=O)[C@@]4(O)C(O)=C2C3=O)[nH]1 [BK] | >147.66 | >147.66 | > 148 | 4 (≈ 7.45 µM) | 0.25 (≈ 0.466 µM) | 0.13 (≈ 0.242 µM) | 64 (≈ 119 µM) | 4 (≈ 7.45 µM) | 4 (≈ 7.45 µM) | 32 (≈ 59.6 µM) | > 148
CN(CCC#N)Cc1cccc(-c2ccc(O)c3c2C[C@H]2C[C@H]4[C@H](N(C)C)C(O)=C(C(N)=O)C(=O)[C@@]4(O)C(O)=C2C3=O)c1 [BL] | >136.45 | >136.45 | > 13.6 | 2 (≈ 3.41 µM) | 0.06 (≈ 0.102 µM) | 0.06 (≈ 0.102 µM) | 16 (≈ 27.3 µM) | 16 (≈ 27.3 µM) | 4 (≈ 6.82 µM) | 64 (≈ 109 µM) | > 13.6
CN(CCOC(C)(C)C)Cc1cccc(-c2ccc(O)c3c2C[C@H]2C[C@H]4[C@H](N(C)C)C(O)=C(C(N)=O)C(=O)[C@@]4(O)C(O)=C2C3=O)c1 [BM] | 5.93 | >104.43 | 21.6 | 2 (≈ 3.16 µM) | 0.13 (≈ 0.205 µM) | 0.06 (≈ 0.0947 µM) | 4 (≈ 6.31 µM) | 8 (≈ 12.6 µM) | 4 (≈ 6.31 µM) | 64 (≈ 101 µM) | 22.8
CN(C)[C@H]1C(O)=C(C(N)=O)C(=O)[C@@]2(O)C(O)=C3C(=O)c4c(O)ccc(-c5cccc(CCCN6CCCCC6)c5)c4C[C@H]3C[C@@H]12 [BN] | 33.41 | >200 | > 63 | 32 (≈ 52 µM) | 4 (≈ 6.5 µM) | 0.25 (≈ 0.406 µM) | 32 (≈ 52 µM) | 32 (≈ 52 µM) | 16 (≈ 26 µM) | 64 (≈ 104 µM) | > 63
COCCN(C)CC(=O)c1ccc(O)c2c1C[C@H]1C[C@H]3[C@H](N(C)C)C(O)=C(C(N)=O)C(=O)[C@@]3(O)C(O)=C1C2=O [BO] | >154.09 | >154.09 | > 154 | 4 (≈ 7.36 µM) | 0.5 (≈ 0.92 µM) | 0.25 (≈ 0.46 µM) | 64 (≈ 118 µM) | 2 (≈ 3.68 µM) | 2 (≈ 3.68 µM) | 64 (≈ 118 µM) | > 154
CN(C)[C@@H]1C(O)=C(C(N)=O)C(=O)[C@@]2(O)C(O)=C3C(=O)c4c(O)ccc(C(=O)CNCC(C)(C)C)c4C[C@H]3C[C@@H]12 [BP] | >138.32 | >138.32 | > 42.9 | 16 (≈ 29.5 µM) | 2 (≈ 3.69 µM) | 2 (≈ 3.69 µM) | 64 (≈ 118 µM) | 32 (≈ 59.1 µM) | 32 (≈ 59.1 µM) | 64 (≈ 118 µM) | > 42.9
COCCNCc1ccoc1-c1ccc(O)c2c1C[C@H]1C[C@H]3[C@H](N(C)C)C(O)=C(C(N)=O)C(=O)[C@@]3(O)C(O)=C1C2=O [BQ] | >140.51 | >140.51 | > 141 | 4 (≈ 7.05 µM) | 0.06 (≈ 0.106 µM) | 0.06 (≈ 0.106 µM) | 64 (≈ 113 µM) | 1 (≈ 1.76 µM) | 1 (≈ 1.76 µM) | 64 (≈ 113 µM) | > 141
CCOC(=O)N1CCN(CC(=O)c2ccc(O)c3c2C[C@H]2C[C@H]4[C@H](N(C)C)C(O)=C(C(N)=O)C(=O)[C@@]4(O)C(O)=C2C3=O)CC1 [BR] | >131.28 | >131.28 | > 40.7 | 0.5 (≈ 0.816 µM) | 0.06 (≈ 0.0979 µM) | 0.06 (≈ 0.0979 µM) | 64 (≈ 104 µM) | 8 (≈ 13.1 µM) | 8 (≈ 13.1 µM) | 64 (≈ 104 µM) | > 40.7
CC(=O)N1CCN(CC(=O)c2ccc(O)c3c2C[C@H]2C[C@H]4[C@H](N(C)C)C(O)=C(C(N)=O)C(=O)[C@@]4(O)C(O)=C2C3=O)CC1 [BS] | >144.92 | >144.92 | > 145 | 8 (≈ 13.7 µM) | 1 (≈ 1.72 µM) | 1 (≈ 1.72 µM) | 64 (≈ 110 µM) | 32 (≈ 54.9 µM) | 64 (≈ 110 µM) | 64 (≈ 110 µM) | > 145
CN(C)[C@@H]1C(O)=C(C(N)=O)C(=O)[C@@]2(O)C(O)=C3C(=O)c4c(O)ccc(C(=O)CNCC(F)(F)F)c4C[C@H]3C[C@@H]12 [BT] | >151.65 | >151.65 | > 47 | 2 (≈ 3.61 µM) | 0.06 (≈ 0.108 µM) | 0.06 (≈ 0.108 µM) | 64 (≈ 116 µM) | 8 (≈ 14.5 µM) | 2 (≈ 3.61 µM) | 64 (≈ 116 µM) | > 47
CN(C)[C@@H]1C(O)=C(C(N)=O)C(=O)[C@@]2(O)C(O)=C3C(=O)c4c(O)ccc(C(=O)CN5CCN(C6CCCCC6)CC5)c4C[C@H]3C[C@@H]12 [BU] | >122.93 | >122.93 | > 123 | 1 (≈ 1.61 µM) | 0.13 (≈ 0.209 µM) | 0.06 (≈ 0.0964 µM) | 2 (≈ 3.21 µM) | 0.5 (≈ 0.803 µM) | 1 (≈ 1.61 µM) | 64 (≈ 103 µM) | > 123
